These are literature values, as cited in US8236817B2, “Polymorphs of 1-cyclopropy1-7-([s,s])-2,8-diazadicyclo[4.3.0]non-8-yl)-6-fluoro-1,4-dihydro-8-methoxy-4-oxo-3-quinoline carboxylic acid hydrochloride and methods for the preparation thereof” (Chemi S.p.A., priority 2003, dated 2012).

The conditions of this data set: solid form exposed to atmosphere; stated in U.S. Pat. No. 5,849,752.

For `COc1c(N2C[C@@H]3CCCN[C@@H]3C2)c(F)cc2c(=O)c(C(=O)O)cn(C3CC3)c12.Cl` [anhydrous form], the hygroscopicity entry is “absorbs water from the atmosphere”.
